In patent US10787430B2, “Hemoglobin modifier compounds and uses thereof” (FronThera U.S. Pharmaceuticals LLC, priority 2016, dated 2020):
Where a name gives a salt, the structure may show the parent alone. Read-outs that look alike come from different tables or passages of the source.

Legend:
[1] = Solubility in JP1, JP2 and FaSSIF buffers; format: physicochemical; settings: 25 °C, thermodynamic from solid, room temperature
Protocol: Conditions: 1. JP1 buffer (84 mM HCl, 34.22 mM NaCl, pH 1.2); 2. JP2 buffer (50 mM phosphate buffer at pH 6.8); 3. FaSSIF buffer, pH 6.5 (Preparation: In about 0.9 L of purified water dissolve 0.420 g of NaOH (pellets), 4.470 g of NaH2PO4 (dihydrate), 6.186 g of NaCl; Adjust the pH to 6.5 with Sodium hydroxide 1N or Hydrochloric acid 1N, to make up to volume (1 L) with purified water at room temperature; Add 0.224 g of SIF Powder Original to about 0.5 L of pH 6.5 blank buffer and stir until powder is completely dissolved; Let stand for 2 hour. FaSSIF buffer is now ready to use.
Procedures: 1. accurately weighed about 2 mg test compounds and controls in whatman vials, then transferred 450 μL buffer in to the vials; 2. Filter pistons of miniuniprep vials were placed and compressed to the position of the liquid level to allow for contact. Vortexed for 2 minutes; 3. […] Miniunipreps were compressed to prepare the filtrates for injection into HPLC system; 5. Diluted the filtrates with buffer by a factor of 50 fold to make diluents; 6. Determined the test compound concentration of the diluents and filtrates using HPLC-UV.

[2] = Pharmacokinetic study in rats (plasma and red blood cell); format: in vivo; settings: male, Sprague-Dawley, rat, oral, 7.2 mg/kg
Protocol: Rats (Sprague-Dawley, male, 220-280 g) were dosed with GBT-440 (HCl salt) and one of three compounds corresponding to Example 27, 29, and 38. The rats received oral (7.2 mpk) doses of the compound. Rats were fasted overnight before the experiments and provided with food four hours after dosing. The oral dosing formulations was prepared as follows: approximately 10 mg of compound was weighed precisely to an appropriate size of container, to which was added 2 mL of vehicle 0.5% methylcellulose in water and 8 μL 0.5% sodium dodecyl sulfate. The mixture was then transferred into a glass vial, and volume adjusted to appropriate volume with 0.5% methylcellulose to obtain a final concentration of 0.72 mg·mL^−1, and then vortexed and sonicated briefly.
Whole blood sample collection: Blood samples ([…]) were collected at pre-dose, 15, 30 min, 1, 2, 4, 8, 12 and 24 h via jugular vein into tubes and anticoagulated with 3.2% TSC (trisodium citrate). The proportion of anticoagulant and blood was 1:9 (v/v). The sampling time was recorded accordingly. The tubes were gently inverted several times to ensure mixing. Then 10 μL doses of whole blood sample was transferred to a new EP tube and duplicated in wet ice.
Plasma sample collection: The remaining whole blood was processed by centrifugation at 5,500 rpm for 10 min. The supernate was collected. All these whole blood and plasma samples were kept below −20° C. for 1 h prior to analysis.
(§1) Plasma sample preparation: An aliquot of 20 μL of sample was transferred to sample treatment tube (1.5 mL EP tube), and then 100 μL ACN (0.5% FA) containing Verapamil, 5 ng·mL^−1 and Glibenclamide, 50 ng·mL^−1 for protein precipitation was added. The mixture was vortexed for 30 min, and then centrifuged at 13000 rpm for 5 min at room temperature. After that, 70 μL of supernatant was transferred to a 96-Well Plate, to which 70 μL of water added and then vortexed for 10 min at room temperature. An aliquot of 10 μL of this mixture was analyzied using LC-MS/MS.
as §1, with “Whole blood” for “Plasma”, “10” for “20”, “500” for “100”, “water was” for “water”, “analyzed” for “analyzied”
Plasma and red blood cell concentration-time data were processed by linear regression analysis. All pharmacokinetic parameters were calculated using non-compartment model of Pharsight Phoenix 6.3.
Red blood cell concentrations were calculated according to the method below: Mass balance equation: Cb·VB=Cp·Vp+CBC·VBC Where, Cb=Concentration of whole blood; VB=Volume of whole blood; Cp=Concentration of plasma; Vp=Volume of plasma; CBC=Concentration of blood cell; VBC=Volume of blood cell. VBC=H·VB, where H is the hematocrit number. Vp=(1−H)·VB

[3] = target: T1, hemoglobin (normal human adult blood) (Homo sapiens, UniProt P68871+P69905); experiment: Time-dependent oxygen equilibrium curve (OEC) studies in normal whole blood; format: cell-based; settings: 2 mM compound, 2% DMSO, normal human blood 20% hematocrit, 37° C., 1 h
T1 construct: Normal whole blood was collected from adult healthy donors; from tissue; host or cells: normal human whole blood (red blood cells), adult healthy donors
Protocol: Materials: Normal whole blood was collected from adult healthy donors at the Virginia Commonwealth University after informed consent. The use of these human samples is in accordance with regulations of the IRB for Protection of Human Subjects. Compounds (50 mM-100 mM concentration in DMSO) were stored at 15° C. or room temperature until use.
The time-dependent OEC studies were conducted on normal human adult blood samples with hematocrit value of 20% in the absence or presence of effectors solubilized in DMSO at final drug and DMSO concentrations of 2 mM and 2%, respectively. […] The mixture was further incubated at 37° C. with shaking. […] After equilibration, the sample was removed by syringe and aspirated into a ABL 700 series table top automated blood gas analyzer (Radiometer America, Inc., Westlake, Ohio) to determine values of total hemoglobin (tHb), methemoglobin (metHb), hematocrit (Hct), pH, partial pressure of oxygen (pO2), and Hb oxygen saturation values (sO2). The measured values of sO2 and pO2 at each partial pressure of oxygen are then subjected to a non-linear regression analysis using the program Scientist (Micromath, Salt Lake City, Utah) with the following equation: […]
This equation was used to calculate P50 and Hill coefficient (N) values. Corresponding control experiments without the test compound (P50control) but containing DMSO were also performed. GBT440 was used as a positive control.

[4] = aqueous buffer, JP2 buffer (50 mM phosphate) pH 6.8, 24 hr, read-out: JP2 Solubility
[5] = simulated gastric fluid, JP1 buffer pH 1.2, 24 hr, read-out: JP1 Solubility
[6] = FaSSIF buffer pH 6.5, 24 hr, read-out: FaSSIF Solubility
[7] = red blood cells, red blood cell (calculated by mass balance from whole blood and plasma), read-out: AUC0-24 h RBC
[8] = red blood cells, red blood cell (calculated by mass balance from whole blood and plasma), read-out: Cmax RBC
[9] = red blood cells, red blood cell, read-out: T1/2 RBC (converted)
[10] = plasma, read-out: AUC0-24 h Plasma
[11] = plasma, read-out: T1/2 Plasma (converted)

T1 sequence (P69905 2-142 limits assumed): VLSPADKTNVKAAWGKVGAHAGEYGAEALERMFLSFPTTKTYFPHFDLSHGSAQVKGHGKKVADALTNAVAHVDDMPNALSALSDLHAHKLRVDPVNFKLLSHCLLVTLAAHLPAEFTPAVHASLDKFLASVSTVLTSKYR
T1 sequence (P68871 2-147 limits assumed): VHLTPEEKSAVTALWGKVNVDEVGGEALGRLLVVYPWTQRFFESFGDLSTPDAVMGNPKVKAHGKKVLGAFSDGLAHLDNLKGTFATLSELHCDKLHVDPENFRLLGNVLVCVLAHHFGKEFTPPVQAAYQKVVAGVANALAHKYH

Row | solubility at 24 h [1, 4] | solubility at 24 h [1, 5] | solubility at 24 h [1, 6] | AUC(0-t) [2, 7] | Cmax [2, 8] | half-life [2, 9] | AUC(0-t) [2, 10] | Cmax ([2]; plasma, read-out: Cmax Plasma) | half-life [2, 11] | delta p50 [3] | Structure (SMILES)
1 | 74.4 µg/mL | > 4440 µg/mL | 591 µg/mL | 12000 µg·h/mL | 1240 µg/mL | 10 h | 42.6 µg·h/mL | 4.01 µg/mL | 12 h | – | Cl.[2H]C([2H])(Oc1cccc(O)c1C=O)c1cccnc1-n1ccnc1C(C)C [Example 29, 2-hydroxy-6-((2-(2-isopropyl-1H-imidazol-1-yl)pyridin-3-yl)methoxy-d2)benzaldehyde hydrochloric acid]
2 | 28 µg/mL | 986 µg/mL | 95.7 µg/mL | 3440 µg·h/mL | 216 µg/mL | 17 h | 22.8 µg·h/mL | 2.15 µg/mL | 19 h | – | CC(C)n1nccc1-c1ncccc1COc1cccc(O)c1C=O [GBT-440 (HCl salt), reference compound]
3 | – | – | – | – | – | – | – | – | – | −68% | CC(C)n1nccc1-c1ncccc1COc1ccc2c(c1C=O)OC(F)(F)O2 [Example 8, 2,2-difluoro-5-((2-(1-isopropyl-1H-pyrazol-5-yl)pyridin-3-yl)methoxy)benzo[d][1,3]dioxole-4-carbaldehyde]
4 | – | – | – | – | – | – | – | – | – | −78% | CC(C)n1nccc1-c1ncccc1COc1ccc2c(c1C=O)CCO2 [Example 2, 5-((2-(1-isopropyl-1H-pyrazol-5-yl)pyridin-3-yl)methoxy)-2,3-dihydrobenzofuran-4-carbaldehyde]
5 | – | – | – | – | – | – | – | – | – | −68% | CC(C)n1nccc1-c1ncccc1COc1ccc2c(c1C=O)C(O)C(F)(F)C2 (centres unmarked) [Example 10, 2,2-difluoro-3-hydroxy-5-((2-(1-isopropyl-1H-pyrazol-5-yl)pyridin-3-yl)methoxy)-2,3-dihydro-1H-indene-4-carbaldehyde]
6 | 8.16 µg/mL | 623 µg/mL | 35.7 µg/mL | 566 µg·h/mL | 50.3 µg/mL | 26 h | 10.7 µg·h/mL | 0.742 µg/mL | 18 h | – | Cl.[2H]C([2H])(Oc1cc(F)cc(O)c1C=O)c1cccnc1-c1ccnn1C(C)C [Example 27, 4-fluoro-2-hydroxy-6-((2-(1-isopropyl-1H-pyrazol-5-yl)pyridin-3-yl)methoxy-d2)benzaldehyde hydrochloric acid]
7 | – | – | – | – | – | – | – | – | – | −51% | CC(C)n1nccc1-c1ncccc1COc1ccc2c(c1C=O)OCC2 [Example 4, 6-((2-(1-isopropyl-1H-pyrazol-5-yl)pyridin-3-yl)methoxy)-2,3-dihydrobenzofuran-7-carbaldehyde]
8 | – | – | – | – | – | – | – | – | – | −77% | CC(C)n1nccc1-c1ncccc1COc1ccc2ccoc2c1C=O [Example 5, 6-((2-(1-isopropyl-1H-pyrazol-5-yl)pyridin-3-yl)methoxy)benzofuran-7-carbaldehyde]
